Test [1] deals with T1, Substance-P receptor (Homo sapiens, UniProt P25103). The experiment in a line: Effect on IP3 turnover by phospholipaseC positively linked to human NK1 receptor expressed in CHO cells. It is filed as functional, cell-based. The following applies: read-out: pA2 (converted).
Test [2] has as its target T1, Substance-P receptor. Briefly: Displacement of [3H] labelled Substance P from cloned human NK1 receptor expressed in CHO cells. It is filed as cell-based. (In a radioligand displacement assay an active substance lowers the binding of a labelled ligand.)
In the next test the test system is Gerbil, jird. The experiment in a line: Inhibition of GR-73632 induced foot tapping in po dosed gerbils. It is filed as functional. The note with it: Meriones.

By Ki is commonly meant a dissociation constant, usually derived from enzyme kinetics or from competition with a known ligand. For orientation: ED50 means the midpoint of the dose-response relation. Low values mean an effect at a small dose, high ones a need for a large dose.

T1 sequence (P25103 whole entry): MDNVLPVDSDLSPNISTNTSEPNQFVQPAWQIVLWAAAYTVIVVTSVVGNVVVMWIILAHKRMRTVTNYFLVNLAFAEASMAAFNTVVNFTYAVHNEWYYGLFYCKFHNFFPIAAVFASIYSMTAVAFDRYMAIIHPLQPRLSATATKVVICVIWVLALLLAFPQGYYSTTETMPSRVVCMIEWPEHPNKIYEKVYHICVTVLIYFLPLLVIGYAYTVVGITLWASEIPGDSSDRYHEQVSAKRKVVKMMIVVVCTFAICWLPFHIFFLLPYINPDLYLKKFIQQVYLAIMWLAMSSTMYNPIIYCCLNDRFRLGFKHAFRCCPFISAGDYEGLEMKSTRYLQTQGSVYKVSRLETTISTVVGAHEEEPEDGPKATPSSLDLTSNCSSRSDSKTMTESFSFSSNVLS

In the case of `O=C(c1cc(C(F)(F)F)cc(C(F)(F)F)c1)N1CCN(CC2=NOC(CN3CCOCC3)C2)C[C@H]1Cc1c[nH]c2ccccc12` (stereo not given in full), at Substance-P receptor [1], the Kb was 0.631 nM. At Substance-P receptor [2], this compound gave an inhibitory constant (Ki) of 2.51 nM. Moreover, the ED50 in the test with Gerbil, jird is 6.4 mg/kg.

Turning to `O=C(c1cc(C(F)(F)F)cc(C(F)(F)F)c1)N1CCN(C/C(=N\OCCCN2CCOCC2)c2ccccc2)C[C@H]1Cc1c[nH]c2ccccc12`, on Substance-P receptor [1], the Kb was 1.26 nM. The affinity at Substance-P receptor [2], expressed as Ki, was 6.31 nM. The compound also registered a median effective dose (ED50) with Gerbil, jird greater than 10 mg/kg.

For the compound `CO/N=C(/C)CN1CCN(C(=O)c2cc(C(F)(F)F)cc(C(F)(F)F)c2)[C@H](Cc2c[nH]c3ccccc23)C1`, the Kb on Substance-P receptor [1] was 7.94 nM. Also, at Substance-P receptor [2], the affinity, expressed as Ki, was 3.98 nM.

Regarding `COc1ccccc1CNCCNC(=O)N1CCN(C(=O)c2cc(C(F)(F)F)cc(C(F)(F)F)c2)[C@H](Cc2c[nH]c3ccccc23)C1`, the Kb on Substance-P receptor [1] was 1.26 nM. Also, the ED50 in the test with Gerbil, jird is greater than 10 mg/kg.

For `C/C(CN1CCN(C(=O)c2cc(C(F)(F)F)cc(C(F)(F)F)c2)[C@H](Cc2c[nH]c3ccccc23)C1)=N/OCCN1CCN(C)CC1`, the Kb at Substance-P receptor [1] was 1.58 nM. At Substance-P receptor [2], this compound showed an inhibition constant Ki of 1.58 nM. This compound registered an ED50 with Gerbil, jird greater than 10 mg/kg.

`O=C(c1cc(C(F)(F)F)cc(C(F)(F)F)c1)N1CCN(C/C=N\OCCCN2CCOCC2)C[C@H]1Cc1c[nH]c2ccccc12`: on Substance-P receptor [1], the Kb is 0.631 nM. The same compound gave a Ki at Substance-P receptor [2] of 1.26 nM. Besides, the ED50 in the test with Gerbil, jird came out at 2.3 mg/kg.

As to `C/C(CN1CCN(C(=O)c2cc(C(F)(F)F)cc(C(F)(F)F)c2)[C@H](Cc2c[nH]c3ccccc23)C1)=N/OCCN`, the Kb on Substance-P receptor [1] was 0.158 nM. The affinity on Substance-P receptor [2], expressed as Ki, was 0.794 nM. The compound also had a median effective dose (ED50) with Gerbil, jird greater than 10 mg/kg.

`CNCCO/N=C(/C)CN1CCN(C(=O)c2cc(C(F)(F)F)cc(C(F)(F)F)c2)[C@H](Cc2c[nH]c3ccccc23)C1`: the Kb at Substance-P receptor [1] is 0.316 nM. Also, the inhibition constant Ki on Substance-P receptor [2] is 2 nM. In the test with Gerbil, jird, this compound registered a median effective dose (ED50) greater than 10 mg/kg.

`O=C(c1cc(C(F)(F)F)cc(C(F)(F)F)c1)N1CCN(CC/C(=N\OCCN2CCOCC2)c2ccccc2)C[C@H]1Cc1c[nH]c2ccccc12`: at Substance-P receptor [1], the Kb is 1.26 nM. Further, the Ki on Substance-P receptor [2] was 10 nM. Further, in the test on Gerbil, jird, the ED50 was greater than 10 mg/kg.

On to `C/C(CCN1CCN(C(=O)c2cc(C(F)(F)F)cc(C(F)(F)F)c2)[C@H](Cc2c[nH]c3ccccc23)C1)=N/OCCN1CCOCC1`, for which the Kb on Substance-P receptor [1] was 1.26 nM. The inhibition constant (Ki) at Substance-P receptor [2] is 0.398 nM. This compound also showed an ED50 in the test with Gerbil, jird of 2 mg/kg.

As to `C/C(CN1CCN(C(=O)c2cc(C(F)(F)F)cc(C(F)(F)F)c2)[C@H](Cc2c[nH]c3ccccc23)C1)=N/OCc1ccccn1`, the Kb at Substance-P receptor [1] is 1.26 nM. This compound also had a Ki at Substance-P receptor [2] of 10 nM. Also, in the test with Gerbil, jird, the ED50 came out at 4.1 mg/kg.

Consider `C/C(CN1CCN(C(=O)c2cc(C(F)(F)F)cc(C(F)(F)F)c2)[C@H](Cc2c[nH]c3ccccc23)C1)=N/OCCN(C)C`, for which the Kb on Substance-P receptor [1] was 7.94 nM. The compound also showed an inhibitory constant (Ki) on Substance-P receptor [2] of 0.794 nM. The ED50 with Gerbil, jird was greater than 10 mg/kg.

For `C/C(CCN1CCN(C(=O)c2cc(C(F)(F)F)cc(C(F)(F)F)c2)[C@H](Cc2c[nH]c3ccccc23)C1)=N/OCCCN1CCOCC1`, the Kb at Substance-P receptor [1] was 1 nM. Also, at Substance-P receptor [2], the Ki is 0.2 nM. The ED50 with Gerbil, jird came out at 5.5 mg/kg.

In the case of `C/C(CN1CCN(C(=O)c2cc(C(F)(F)F)cc(C(F)(F)F)c2)[C@H](Cc2c[nH]c3ccccc23)C1)=N/OCCN1CCOCC1`, the Kb at Substance-P receptor [1] was 0.158 nM. Also, the inhibition constant (Ki) on Substance-P receptor [2] is 10 nM. This compound also yielded an ED50 in the test on Gerbil, jird of 1.3 mg/kg.

Take `C/C(CN1CCN(C(=O)c2cc(C(F)(F)F)cc(C(F)(F)F)c2)[C@H](Cc2c[nH]c3ccccc23)C1)=N/OCCCN1CCOCC1`: on Substance-P receptor [1], the Kb was 0.158 nM. At Substance-P receptor [2], this compound showed an inhibition constant Ki of 12.6 nM. Further, the 50% effect level with Gerbil, jird (ED50) was put at a dose of 7.4 mg/kg.

`O=C(c1cc(C(F)(F)F)cc(C(F)(F)F)c1)N1CCN(C/C(=N\OCCN2CCOCC2)c2ccccc2)C[C@H]1Cc1c[nH]c2ccccc12`: the Kb at Substance-P receptor [1] was 3.16 nM. In addition, the affinity on Substance-P receptor [2], expressed as Ki, was 20 nM.

`C/C(CN1CCN(C(=O)c2cc(C(F)(F)F)cc(C(F)(F)F)c2)[C@H](Cc2c[nH]c3ccccc23)C1)=N/OCCN1CCS(=O)(=O)CC1`: the Kb at Substance-P receptor [1] is 0.1 nM. The Ki on Substance-P receptor [2] is 2.51 nM. The compound further displayed a 50% effective dose (ED50) in the test with Gerbil, jird greater than 10 mg/kg.

For `C/C(CN1CCN(C(=O)c2cc(C(F)(F)F)cc(C(F)(F)F)c2)[C@H](Cc2c[nH]c3ccccc23)C1)=N/OCC(C)(C)N1CCOCC1`, the Kb on Substance-P receptor [1] is 5.01 nM. The compound also had an inhibition constant Ki at Substance-P receptor [2] of 6.31 nM.

For the compound `C/C(CN1CCN(C(=O)c2cc(C(F)(F)F)cc(C(F)(F)F)c2)[C@H](Cc2c[nH]c3ccccc23)C1)=N/OCCN1CCSCC1`, the Kb at Substance-P receptor [1] was 1.26 nM. The compound also had a Ki at Substance-P receptor [2] of 6.31 nM. In addition, the ED50 with Gerbil, jird came to 10 mg/kg.

On to `C/C(CCCN1CCN(C(=O)c2cc(C(F)(F)F)cc(C(F)(F)F)c2)[C@H](Cc2c[nH]c3ccccc23)C1)=N/OCCN1CCOCC1`, for which the Kb on Substance-P receptor [1] was 1.58 nM. At Substance-P receptor [2], this compound had a Ki of 1.26 nM. Also, the 50% effective dose (ED50) in the test on Gerbil, jird amounted to 2 mg/kg.

As for `O=C(c1cc(C(F)(F)F)cc(C(F)(F)F)c1)N1CCN(C/C=N\OCCN2CCOCC2)C[C@H]1Cc1c[nH]c2ccccc12`, the Kb on Substance-P receptor [1] was 0.631 nM. On Substance-P receptor [2], this compound had an inhibition constant Ki of 1.26 nM. This compound also displayed an ED50 with Gerbil, jird of 2 mg/kg.

Take `C/C(CN1CCN(C(=O)c2cc(C(F)(F)F)cc(C(F)(F)F)c2)[C@H](Cc2c[nH]c3ccccc23)C1)=N/OCC(C)N1CCOCC1` (stereo not given in full): at Substance-P receptor [1], the Kb is 2 nM. The same compound had a Ki on Substance-P receptor [2] of 3.16 nM. Moreover, the median effective dose (ED50) in the test with Gerbil, jird turned out to be 2.6 mg/kg.

In the case of `O=C(c1cc(C(F)(F)F)cc(C(F)(F)F)c1)N1CCN(Cc2cc(CN3CCOCC3)on2)C[C@H]1Cc1c[nH]c2ccccc12`, the Kb on Substance-P receptor [1] was 0.794 nM. On Substance-P receptor [2], this compound gave an inhibition constant (Ki) of 12.6 nM. Moreover, it took a dose of 4.6 mg/kg to reach the 50% effect level with Gerbil, jird (ED50).

The values above are taken from ChEMBL document CHEMBL1138138, “Piperazinyl oxime ethers as NK-1 receptor antagonists” (Bioorg Med Chem Lett, 2006).
